Assay results published in patent publication US12384777B2 (Tay Therapeutics Limited, priority 2019, dated 2025).
Like-named read-outs stand apart in the source and are kept apart here.

Experiments:
BRD4 BD2 = BRD4 BD2 (Homo sapiens (Human), UniProt O60885); assay: Bromodomain binding assay (T7 phage display, qPCR), BRD4 BD2; settings: for Kd: read-out: BRD4 BD2 Kd
Protocol: (§1) T7 phage strains displaying bromodomains were grown in parallel in 24-well blocks in an E. coli host derived from the BL21 strain. E. coli were grown to log-phase and infected with T7 phage from a frozen stock (multiplicity of infection=0.4) and incubated with shaking at 32° C. until lysis (90-150 min). The lysates were centrifuged (5,000×g) and filtered (0.2 μm) to remove cell debris. Streptavidin-coated magnetic beads were treated with biotinylated small molecule or acetylated peptide ligands for 30 min at RT to generate affinity resins for bromodomain assays. The ligated beads were blocked with excess biotin and washed with blocking buffer (SeaBlock (Pierce), 1% BSA, 0.05% Tween 20, 1 mM DTT) to remove unbound ligand and to reduce non-specific phage binding. Binding reactions were assembled by combining bromodomains, ligated affinity beads, and test compounds in 1× binding buffer (16% SeaBlock, 0.32×PBS, 0.02% BSA, 0.04% Tween 20, 0.004% Sodium azide, 7.9 mM DTT). Test compounds were prepared as 1000× stocks in 100% DMSO and subsequently diluted 1:25 in MEG. The compounds were then diluted directly into the assays such that the final concentrations of DMSO and MEG were 0.1% and 2.4%, respectively. All reactions were performed in polypropylene 384-well plates in a final volume of 0.02 ml. The assay plates were incubated at RT with shaking for 1 hr and the affinity beads were washed with wash buffer (1×PBS, 0.05% Tween 20). The beads were then re-suspended in elution buffer (1×PBS, 0.05% Tween 20, 2 μM non-biotinylated affinity ligand) and incubated at RT with shaking for 30 min. The bromodomain concentration in the eluates was measured by quantitative polymerase chain reaction (qPCR).
An 11-point 3-fold serial dilution of each test compound was prepared in 100% DMSO at 1000× final test concentration. All compounds were distributed by acoustic transfer (non-contact dispensing) in 100% DMSO. The compounds were then diluted directly into the assays such that the final concentration of DMSO was 0.09%. Most dissociation constants were determined using a compound top concentration=10,000 nM. If the initial dissociation constant determined was <0.169 nM (the lowest concentration tested), the measurement was repeated with a serial dilution starting at a lower top concentration.
The same bromodomain assay procedure as that outlined above was used. Example compounds were screened at 30 times their Kd, and results for primary screen binding interactions are reported as ‘% Ctrl’, where lower numbers indicate stronger hits in the matrix.

[1] = Stability in human skin S9 fraction; format: in vitro ADME; settings: human, human skin S9 fraction, pH 7.4; 0.3 mg/mL S9, NADPH, UDPGA, 0.5 μM compound; read-out: T1/2 (min) in human skin S9 fractions
Protocol: An incubation mixture was prepared containing 50 mM potassium phosphate buffer, pH 7.4), 0.3 mg/mL human skin S9 (Sekisui Xenotech), NADPH (final conc 0.8 mg/mL), UDPGA (final conc 0.16 mg/mL) and warmed to 37° C. for 5 min. The reaction was initiated upon addition of test compound (final concentration 0.5 μM). Immediately, at time zero, then at 3, 6, 15, 30, 60, 120 and 180 min, an aliquot (50 μL) of the incubation mixture was removed and mixed with acetonitrile (100 μL) to terminate the reaction. Internal standard was added to all samples, the samples centrifuged to sediment precipitated protein and the plates then sealed prior to UPLC-MS/MS analysis using a Quattro Premier XE (Waters corporation, USA).
Grafit (Erithacus Ltd) was used to calculate the exponential decay and consequently the rate constant (k) from the ratio of peak area of test compound to internal standard at each timepoint. The half life (T1/2) of each test compound was determined using the following equation: T1/2=0.693/k

[2] = Solubility in topical formulations; format: physicochemical; settings: thermodynamic from solid, 5 hr at 32° C.
Protocol: The solubilities of solid exemplary compounds were determined in a selection of solvents and solvent combinations (Transcutol, 50:50 Transcutol:water, Labrasol, propylene glycol and 1:5:4 ethanol:propylene glycol:water), after equilibration. An appropriate volume of each combination was added to a manual weighing of solid compound to provide a 20 mg/mL concentration. The resulting suspension was shaken at 1000 rpm for 5 hr at 32° C. before centrifugation at 13,000×g for 10 min to pellet any precipitate. The supernatant solution was removed and inserted into a HPLC vial and quantified by HPLC-UV against a calibration of a known concentration of the compound in DMSO.

[3] = Hydrolytic stability at a range of pHs; format: physicochemical; settings: for decomposition at all pH values tested: pH 4.0, 5.5 and 7.4, text summary; for pH 4.0 % decomposition: pH 4.0 buffer; for pH 4.0 % decomposition / pH 5.5 % decomposition / pH 7.4 % decomposition: 60° C., 6 days; for pH 5.5 % decomposition: pH 5.5 buffer; for pH 7.4 % decomposition: pH 7.4 buffer
Protocol: To test the hydrolytic stability a 1 mg/mL solution of test materials was made in DMSO (0.1% solution). To 300 μL of each solution in a HPLC vials was added 1200 μL of one of the following: pH 4.0 buffer—left at 60° C. for 5 days. Samples taken t=0 hr and 6 days pH 5.5 buffer—left at 60° C. for 5 days. Samples taken t=0 hr and 6 days pH 7.4 buffer—left at 60° C. for 5 days. Samples taken t=0 hr and 6 days A 100 μL aliquot was taken at each time point and added to 900 μL of DMSO. This sample was used to determine % decomposition.
% decomposition was measured with a Bruker MicrOTOF II focus ESI Mass Spectrometer connected in parallel to Dionex Ultimate 3000 RSLC system with diode array detector.

BRD2(1) = BRD2(1) (Homo sapiens (Human), UniProt P25440); assay: Bromodomain binding assay, BRD2(1); settings: single point, screened at 30 times Kd; lower numbers indicate stronger hits
BRD2(1), sequence (P25440 74-180): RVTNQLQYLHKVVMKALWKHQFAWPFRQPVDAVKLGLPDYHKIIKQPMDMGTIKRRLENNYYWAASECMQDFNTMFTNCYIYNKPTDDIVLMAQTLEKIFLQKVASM
Protocol: as §1
An 11-point 3-fold serial dilution of each test compound was prepared in 100% DMSO at 1000× final test concentration. […] Most dissociation constants were determined using a compound top concentration=10,000 nM. If the initial dissociation constant determined was <0.169 nM (the lowest concentration tested), the measurement was repeated with a serial dilution starting at a lower top concentration. […]

[4] = Labrasol, oil or lipid, read-out: Solubility in LB (Labrasol)
[5] = Transcutol, organic solvent or mixture, read-out: Solubility in TC (Transcutol)
[6] = Transcutol:water 1:1, aqueous with cosolvent or surfactant or cyclodextrin, read-out: Solubility in TC:water 1:1
[7] = ethanol:propylene glycol:water 1:5:4, aqueous with cosolvent or surfactant or cyclodextrin, read-out: Solubility in EtOH:PG:water 1:5:4
[8] = propylene glycol, organic solvent or mixture, read-out: Solubility in PG (Propylene glycol)

## Cn1cc(-c2c(O)cccc2Oc2ccccc2)c2cc[nH]c2c1=O [Example 3, 4-(2-hydroxy-6-phenoxyphenyl)-6-methyl-1,6-dihydro-7H-pyrrolo[2,3-c]pyridin-7-one]
BRD4 BD2
  Kd: ≤ 10 nM
[1]
  half-life at 0.5 μM: > 120 min
[2]; [4]
  solubility at 5 hr: > 10000 µg/mL
[2]; [5]
  solubility at 5 hr: > 10000 µg/mL
[2]; [6]
  solubility at 5 hr: > 10000 µg/mL
[2]; [7]
  solubility at 5 hr: 1000 to 10000 µg/mL
[2]; [8]
  solubility at 5 hr: > 10000 µg/mL
[3]
  decomposition at all pH values tested: < 5%
  pH 4.0 % decomposition: 0%
  pH 5.5 % decomposition: 0%
  pH 7.4 % decomposition: 0%

## Cn1cc(-c2cccc(O)c2Oc2ccccc2)c2cc[nH]c2c1=O [Example 1, 4-(3-hydroxy-2-phenoxyphenyl)-6-methyl-1,6-dihydro-7H-pyrrolo[2,3-c]pyridin-7-one]
BRD4 BD2
  Kd: ≤ 10 nM
BRD4 BD2; single point, screened at 30 times Kd, lower numbers indicate stronger hits
  BRD4(2) % Ctrl: 2.6 % Ctrl
[1]
  half-life at 0.5 μM: > 120 min
[2]; [4]
  solubility at 5 hr: 1000 to 10000 µg/mL
[2]; [5]
  solubility at 5 hr: > 10000 µg/mL
[2]; [6]
  solubility at 5 hr: 1000 to 10000 µg/mL
[2]; [7]
  solubility at 5 hr: 1000 to 10000 µg/mL
[2]; [8]
  solubility at 5 hr: 1000 to 10000 µg/mL
BRD2(1)
  BRD2(1) % Ctrl: 0 % Ctrl
[3]
  decomposition at all pH values tested: < 5%
  pH 4.0 % decomposition: 0%
  pH 5.5 % decomposition: 0%
  pH 7.4 % decomposition: 0%
